Reference: PMC5108082, “Pharmacokinetics, toxicity, and cytochrome P450 modulatory activity of plumbagin” (BMC Pharmacology & Toxicology, 2016)

Assay: in vivo
Settings: male, Wistar, rat, po, 100 mg/kg
Experimental: Pharmacokinetic investigation was performed in 4 male Wistar rats (weighing 200–350 g) following a single oral dose of 100 mg/kg body weight plumbagin (1 mL). The control group received 20 % Tween-80 (1 mL). Blood samples (500 μL each) were collected from the tail vein of each rat at 0, 1, 2, 3, 5, 8, 24, 48, and 72 h after dosing. Plasma was separated from whole blood samples through centrifugation at 3000 × g for 10 min.
Concentrations of plumbagin in plasma and urine samples collected from all animals were measured using liquid chromatographic-mass spectrometry (LC-MS/MS) according to the previously described method with modifications. The limits of quantification (LOQ) and detection (LOD) for plumbagin were 5 and 2 ng/mL plasma, respectively. Recovery of the compound in plasma after sample preparation procedure was between 82 and 92 %. The assay intra- and inter-day coefficients of variation (% CV) were 0.7–4.7 % and 3.9–8.3 %, respectively. In brief, plasma sample (100 μL) was mixed with 10 ng/mL honokiol (5 μL) and ethyl acetate (1 mL) and centrifuged at 12,000 × g for 15 min. The upper layer was transferred to a new tube and evaporated to dryness under nitrogen flow. The dried residue was reconstituted with 100 μL of the mobile phase and a 5 μL aliquot was injected onto the LC–MS/MS. The samples were collected from the metabolic cages at 24, 48, 72, 96, and 120 h. All were centrifuged at 1500 × g for 10 min and the supernatant (100 μL) was extracted with ethyl acetate (1 mL). The extract was dried and the residue was reconstituted with 100 μL of the mobile phase and a 5 μL aliquot was injected onto the LC–MS/MS.
The LC-MS/MS system used consists of Agilent 1100 Separation Module (Agilent Technologies, CA, USA) solvent and sample delivery, Av QTRAP 5500 Triple Quadrupole Mass Spectrometer (AB Sciex, Foster City, CA, USA) equipped with CID, and Multiple Reactions Monitoring (MRM). Mass spectrometric analysis was performed in the negative-ion mode (ESI). The following parameters of the turbo ion spray were used: ion spray voltage = −4500 V; the ion source gas 1 (GS1), gas 2 (GS2), curtain gas (CUR) and collision gas (CAD) were 50, 60, 25 and 5, respectively; and the desolvation gas (nitrogen) heated to 500 °C. Separation was performed using Hypersil gold reversed-phase C18 column (50 mm × 4.6 mm i.d., 5 μM: Thermo Scientific, Fremont, CA, USA) with the mobile phase consisting of a mixture of (A) water containing 0.1 % formic acid and (B) 100 % methanol, running with gradient mode at the flow rate of 0.6 mL/min at 25 °C (Table 1). On the basic of the full-scan mass spectra of each analyze, the most abundant ions were selected and the mass spectrometer was set to monitor the transitions of the precursors to the product ions as follows: m/z 187– >159 for plumbagin, and 265– >224 for honokiol (internal standard). The system was controlled by Analyst^TM software (AB Sciex, Foster City, CA, USA).
Pharmacokinetic parameters were determined using a non-compartmental analysis using WinNonLin^TM software (version 6.3, Pharsights, Certara, USA). Concentrations of drugs lower than the limit of quantification (LOQ) were expressed as zero (undetectable). The Cmax (maximum concentration); tmax (time of maximum concentration) were determined by direct inspection of the plasma concentration–time data. […] The extrapolated AUC from the last sampling time to infinity was estimated from Ct/elimination rate constant (λz). λz was calculated from at least five concentration–time points of elimination phase. Apparent oral clearance (CL/F) was calculated as dose/AUC0−∞. Volume of distribution (Vz/F) was calculated as CL/F/z, and the terminal half-life (t1/2z) was calculated as 0.693/λz. Mean residence time (MRT) was calculated from the ratio of AUMC0-α)/AUC0−∞.

## CC1=CC(=O)c2c(O)cccc2C1=O [plumbagin, 5-hydroxy-2-methyl-1,4-naphthoquinone]
  AUC(0-inf): 6710 ng·h/mL
  AUC(0-t): 6510 ng·h/mL
  CL/F: 250 mL/min/kg
  Cmax: 460 ng/mL
  Tmax: 5 h
  Vd/F: 220 L/kg
  t1/2 (elimination half-life): 9.63 (3.04) h
  time up to which detected in systemic circulation: 48 h
  time up to which detected in urine (complete elimination in urine): 96 h
72 h
  plumbagin excreted in urine: 15 (9) μg
t1/2 (elimination half-life)
  half-life: ~9.6 h
